In paper PMC4066437, “Oxidation of cellular amino acid pools leads to cytotoxic mistranslation of the genetic code” (eLife, 2014):

Biological target: T1, E. coli TyrRS (Escherichia coli, UniProt P0AGJ9)
T1 construct: gene tyrS; homodimer
T1 sequence (P0AGJ9 2-424): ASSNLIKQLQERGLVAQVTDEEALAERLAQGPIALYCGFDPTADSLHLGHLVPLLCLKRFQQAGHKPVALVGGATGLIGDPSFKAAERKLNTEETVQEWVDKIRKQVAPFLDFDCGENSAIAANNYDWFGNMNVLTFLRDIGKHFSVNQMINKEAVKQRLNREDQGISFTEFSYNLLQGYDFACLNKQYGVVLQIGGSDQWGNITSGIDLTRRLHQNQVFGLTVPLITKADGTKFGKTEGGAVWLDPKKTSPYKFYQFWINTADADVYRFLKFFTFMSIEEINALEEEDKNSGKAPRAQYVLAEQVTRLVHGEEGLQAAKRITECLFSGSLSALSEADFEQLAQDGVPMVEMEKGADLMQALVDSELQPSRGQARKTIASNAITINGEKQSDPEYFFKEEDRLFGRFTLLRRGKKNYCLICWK
Experiment: aminoacylation of […]-tRNA transcript
Format: biochemical
Conditions: 1 mM m-Tyr, 50 nM TyrRS, 25 °C; tRNA named tRNA(Tyr) in text, tRNA(Phe) in legend

`NC(Cc1cccc(O)c1)C(=O)O` (racemic) [m-Tyr, D,L-m-Tyr] was tested, and the “aminoacylation of 32P-tRNA transcript” value was “Aminoacylation of tRNA^Tyr with m-Tyr by E. coli TyrRS was detected in vitro”.
